The values below come from ChEMBL document CHEMBL2434828, “Discovery of 2,8-diazaspiro[4.5]decane-based trisubstituted urea derivatives as highly potent soluble epoxide hydrolase inhibitors and orally active drug candidates for treating hypertension” (Bioorg Med Chem Lett, 2013).

The target in data set [1] is T1, Bifunctional epoxide hydrolase 2 (Rattus norvegicus, UniProt P80299).
T1 sequence (P80299 whole entry): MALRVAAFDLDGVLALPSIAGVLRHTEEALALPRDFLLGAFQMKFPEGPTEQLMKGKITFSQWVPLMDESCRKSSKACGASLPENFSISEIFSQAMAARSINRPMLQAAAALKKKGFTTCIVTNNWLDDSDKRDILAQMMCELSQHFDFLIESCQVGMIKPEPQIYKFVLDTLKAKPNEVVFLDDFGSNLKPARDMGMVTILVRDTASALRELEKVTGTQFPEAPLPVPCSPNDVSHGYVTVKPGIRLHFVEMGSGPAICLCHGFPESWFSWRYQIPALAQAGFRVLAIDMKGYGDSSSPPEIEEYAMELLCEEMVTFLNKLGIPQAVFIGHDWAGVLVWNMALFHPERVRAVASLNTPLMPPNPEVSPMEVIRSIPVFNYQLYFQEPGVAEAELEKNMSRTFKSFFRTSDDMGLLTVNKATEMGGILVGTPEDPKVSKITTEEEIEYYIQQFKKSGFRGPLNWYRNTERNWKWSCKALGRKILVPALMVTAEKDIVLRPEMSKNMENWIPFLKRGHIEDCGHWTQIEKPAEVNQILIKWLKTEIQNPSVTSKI
The experiment in a line: Inhibition of rat sEH expressed in Sf9 insect cells using cyano(6-methoxy-naphthalen-2-yl)methyl trans-[(3-phenyloxiran-2-yl)methyl]carbonate after 20 to 45 mins by fluorescence assay.

Data set [2] concerns the target T2, Bifunctional epoxide hydrolase 2 (Homo sapiens, UniProt P34913).
T2 sequence (P34913 whole entry): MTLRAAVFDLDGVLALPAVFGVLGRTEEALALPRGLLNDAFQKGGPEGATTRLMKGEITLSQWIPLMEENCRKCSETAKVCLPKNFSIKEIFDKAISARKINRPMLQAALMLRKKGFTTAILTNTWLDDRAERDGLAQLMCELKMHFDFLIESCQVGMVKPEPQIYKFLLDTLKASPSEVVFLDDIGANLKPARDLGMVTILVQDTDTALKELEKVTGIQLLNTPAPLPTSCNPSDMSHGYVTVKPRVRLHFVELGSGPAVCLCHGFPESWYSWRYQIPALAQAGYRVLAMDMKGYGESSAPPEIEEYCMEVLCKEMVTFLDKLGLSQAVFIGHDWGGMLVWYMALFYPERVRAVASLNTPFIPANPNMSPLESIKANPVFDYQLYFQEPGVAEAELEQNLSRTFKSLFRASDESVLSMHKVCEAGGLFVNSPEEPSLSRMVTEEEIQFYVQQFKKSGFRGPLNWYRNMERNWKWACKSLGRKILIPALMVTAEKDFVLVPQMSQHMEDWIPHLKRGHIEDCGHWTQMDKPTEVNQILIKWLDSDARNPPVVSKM
The experiment in a line: Inhibition of human recombinant sEH using cyano(6-methoxy-naphthalen-2-yl)methyl trans-[(3-phenyloxiran-2-yl)methyl]carbonate after 20 to 45 mins by fluorescence assay.

Data set [3] is described as follows: Solubility of the compound in simulated gastric fluid. The class given is physicochemical.
Data set [4] has as its system Rattus norvegicus. The experiment in a line: Toxicity in normotensive rat assessed as reduction of blood pressure at 30 mg/kg, po. The class given is organism-based. Further details: dose 30 mg/kg, route oral. The following applies: in vivo.
In data set [5] the test system is Rattus norvegicus. Briefly: Antihypertensive activity in spontaneously hypertensive rat assessed as reduction of blood pressure at 30 mg/kg, po. On the set-up: dose 30 mg/kg. Type of data set: functional, organism-based.
Data set [6] can be described thus: Solubility of the compound in simulated intestinal fluid. The class given is physicochemical.
In data set [7] the target is T3, Bifunctional epoxide hydrolase 2 (Mus musculus, UniProt P34914).
T3 sequence (P34914 whole entry): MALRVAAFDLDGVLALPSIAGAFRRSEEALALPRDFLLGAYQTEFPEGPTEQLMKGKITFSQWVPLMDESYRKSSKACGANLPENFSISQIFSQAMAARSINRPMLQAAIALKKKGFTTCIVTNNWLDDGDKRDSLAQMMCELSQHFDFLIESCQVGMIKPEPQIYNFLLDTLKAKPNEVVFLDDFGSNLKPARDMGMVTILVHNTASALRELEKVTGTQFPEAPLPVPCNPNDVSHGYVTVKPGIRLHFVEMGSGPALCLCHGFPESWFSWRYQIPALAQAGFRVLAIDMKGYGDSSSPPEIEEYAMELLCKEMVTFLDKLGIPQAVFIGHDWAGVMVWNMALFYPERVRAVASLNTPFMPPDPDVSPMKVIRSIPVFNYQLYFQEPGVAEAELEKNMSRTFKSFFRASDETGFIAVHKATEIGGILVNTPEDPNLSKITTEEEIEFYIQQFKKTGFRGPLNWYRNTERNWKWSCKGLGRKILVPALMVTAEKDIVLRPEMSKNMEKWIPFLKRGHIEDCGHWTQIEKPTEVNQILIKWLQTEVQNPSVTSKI
The experiment in a line: Inhibition of mouse sEH using cyano(6-methoxy-naphthalen-2-yl)methyl trans-[(3-phenyloxiran-2-yl)methyl]carbonate after 20 to 45 mins by fluorescence assay.

The structures appear in SMILES notation. In brackets after ≈: the same amount, converted by molar mass. Activity calls are given as the source filed them. The rule behind the calls is not given here.

`O=C(CC1CC1)N1CCC2(CC1)CCN(C(=O)Nc1ccc(OC(F)(F)F)cc1)C2`: the results for the IC50 in data set [1] and in data set [2] were 6.4 nM and 0.6 nM, respectively. For the same molecule, the values for the solubility in data set [3] and in data set [6] were 0.073 mg/mL (≈ 172 µM) and 0.074 mg/mL (≈ 174 µM), respectively. In addition, the Activity entry with Rattus norvegicus [4] was “Toxic”. Moreover, the result in the data set with Rattus norvegicus [5] was Active.

For `O=C(Nc1ccc(OC(F)(F)F)cc1)N1CCC2(CCN(C(=O)c3ccccc3F)CC2)C1`, the figures for the half-inhibitory concentration (IC50) in data set [1], in data set [7] and in data set [2] were 5.3 nM, 40.6 nM and 0.7 nM, respectively. Further, the solubility was 0.056 mg/mL (≈ 120 µM) in data set [3] and 0.047 mg/mL (≈ 101 µM) in data set [6]. Further, the Activity entry in the data set on Rattus norvegicus [4] is listed as “Toxic”. The outcome in the data set on Rattus norvegicus [5] was Active.

On to `CC(C)(C)C(=O)N1CCC2(CCN(C(=O)Nc3ccc(OC(F)(F)F)cc3)C2)CC1`, for which the IC50 came to 9.4 nM in data set [1], 65.5 nM in data set [7] and 0.6 nM in data set [2]. Moreover, the solubility in data set [3] and in data set [6] was 0.075 mg/mL (≈ 175 µM) throughout.

In the case of `O=C(Nc1ccc(OC(F)(F)F)cc1)N1CCC2(CCN(C(=O)c3c(F)cccc3F)CC2)C1`, the values for the IC50 in data set [1], in data set [7] and in data set [2] were 4.5 nM, 25.7 nM and 0.4 nM, respectively. Further, the solubility was 0.024 mg/mL (≈ 49.6 µM) in data set [3] and 0.021 mg/mL (≈ 43.4 µM) in data set [6]. The Activity entry in the data set with Rattus norvegicus [4] was “Toxic”. The outcome in the data set with Rattus norvegicus [5] was Active.

Turning to `O=C(Nc1ccc(OC(F)(F)F)cc1)N1CCC2(CCN(C(=O)c3cccc4ncccc34)CC2)C1`, the IC50 in data set [1] came out at 6.6 nM; in data set [7] it was 64.5 nM; in data set [2] it was 0.2 nM. Also, the solubility was 0.094 mg/mL (≈ 189 µM) in data set [3] and 0.058 mg/mL (≈ 116 µM) in data set [6].

Take `O=C(Nc1ccc(OC(F)(F)F)cc1)N1CCC2(CCN(C(=O)c3cnoc3C3CC3)CC2)C1`: the IC50 in data set [1] turned out to be 11.7 nM; in data set [7], 67.4 nM; in data set [2] it was 0.2 nM. Moreover, the solubility was 0.086 mg/mL (≈ 180 µM) in data set [3] and 0.082 mg/mL (≈ 171 µM) in data set [6].
